Source: ChEMBL document CHEMBL4334516, “Kinase Chemodiversity from the Arctic: The Breitfussins” (J Med Chem, 2019)

What was measured:
[1] = molecular target: Dual specificity tyrosine-phosphorylation-regulated kinase 1A (Homo sapiens, UniProt Q13627); assay: Inhibition of DYRK1A (unknown origin) by [33P]-ATP filter binding kinase assay
[2] = molecular target: Serine/threonine-protein kinase pim-3 (Homo sapiens, UniProt Q86V86); assay: Inhibition of PIM3 (unknown origin) by [33P]-ATP filter binding kinase assay
[3] = molecular target: Serine/threonine-protein kinase pim-2 (Homo sapiens, UniProt Q9P1W9); assay: Inhibition of PIM2 (unknown origin) by [33P]-ATP filter binding kinase assay
[4] = molecular target: T1, Mitogen-activated protein kinase kinase kinase kinase 2 (Homo sapiens, UniProt Q12851); assay: Inhibition of GCK (unknown origin) by [33P]-ATP filter binding kinase assay
T1 sequence (Q12851 whole entry): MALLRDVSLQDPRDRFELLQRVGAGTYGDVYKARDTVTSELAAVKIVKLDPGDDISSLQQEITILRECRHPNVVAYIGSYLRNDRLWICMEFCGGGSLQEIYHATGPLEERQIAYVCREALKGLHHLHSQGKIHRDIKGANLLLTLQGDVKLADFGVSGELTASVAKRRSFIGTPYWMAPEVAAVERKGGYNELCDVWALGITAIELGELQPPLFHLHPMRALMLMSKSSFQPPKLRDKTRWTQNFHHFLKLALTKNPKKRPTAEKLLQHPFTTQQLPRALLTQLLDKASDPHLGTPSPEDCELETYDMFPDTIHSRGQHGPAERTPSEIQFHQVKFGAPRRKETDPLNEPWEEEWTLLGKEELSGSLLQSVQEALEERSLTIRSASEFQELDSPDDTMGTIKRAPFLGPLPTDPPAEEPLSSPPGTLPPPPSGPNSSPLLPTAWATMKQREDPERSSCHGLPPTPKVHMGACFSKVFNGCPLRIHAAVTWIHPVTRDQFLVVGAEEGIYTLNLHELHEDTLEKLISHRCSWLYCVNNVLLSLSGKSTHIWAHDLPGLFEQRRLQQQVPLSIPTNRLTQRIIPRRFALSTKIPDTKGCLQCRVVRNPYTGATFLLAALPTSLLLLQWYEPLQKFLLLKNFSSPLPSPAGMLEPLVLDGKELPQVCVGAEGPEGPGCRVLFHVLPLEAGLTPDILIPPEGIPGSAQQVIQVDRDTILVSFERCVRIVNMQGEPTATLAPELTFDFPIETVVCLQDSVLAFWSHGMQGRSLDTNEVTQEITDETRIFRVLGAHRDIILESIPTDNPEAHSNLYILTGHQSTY

MOLT-4 = assay: Cytotoxicity in human MOLT4 cells assessed as reduction in cell viability incubated for 72 hrs by MTS assay; type: functional, cell-based; details: MOLT-4, 72 h
Aurora kinase A = molecular target: T2, Aurora kinase A (Homo sapiens, UniProt O14965); assay: Inhibition of Aurora A (unknown origin) by [33P]-ATP filter binding kinase assay
T2 sequence (O14965 whole entry): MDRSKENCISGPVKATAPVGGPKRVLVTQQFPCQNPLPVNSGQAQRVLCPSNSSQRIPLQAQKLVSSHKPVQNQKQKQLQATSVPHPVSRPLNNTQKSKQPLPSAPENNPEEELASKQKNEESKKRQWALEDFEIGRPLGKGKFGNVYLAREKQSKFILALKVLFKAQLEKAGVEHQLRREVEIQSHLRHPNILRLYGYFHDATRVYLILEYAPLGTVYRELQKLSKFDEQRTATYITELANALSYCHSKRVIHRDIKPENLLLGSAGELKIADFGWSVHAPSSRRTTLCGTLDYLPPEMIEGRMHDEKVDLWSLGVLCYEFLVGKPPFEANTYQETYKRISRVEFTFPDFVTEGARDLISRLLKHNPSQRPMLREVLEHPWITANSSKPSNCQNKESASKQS

SK-BR-3 = assay: Cytotoxicity in human SK-BR-3 cells assessed as reduction in cell viability incubated for 72 hrs by MTS assay; type: functional, cell-based; details: SK-BR-3, 72 h
Aurora kinase B = Aurora kinase B (Homo sapiens, UniProt Q96GD4); assay: Inhibition of Aurora B (unknown origin) by [33P]-ATP filter binding kinase assay
[5] = molecular target: Receptor-interacting serine/threonine-protein kinase 2 (Homo sapiens, UniProt O43353); assay: Inhibition of RIPK2 (unknown origin) by [33P]-ATP filter binding kinase assay
[6] = molecular target: T3, Mitogen-activated protein kinase kinase kinase 7 (Homo sapiens, UniProt O43318); assay: Inhibition of TAK1 (unknown origin) by [33P]-ATP filter binding kinase assay
T3 sequence (O43318 whole entry): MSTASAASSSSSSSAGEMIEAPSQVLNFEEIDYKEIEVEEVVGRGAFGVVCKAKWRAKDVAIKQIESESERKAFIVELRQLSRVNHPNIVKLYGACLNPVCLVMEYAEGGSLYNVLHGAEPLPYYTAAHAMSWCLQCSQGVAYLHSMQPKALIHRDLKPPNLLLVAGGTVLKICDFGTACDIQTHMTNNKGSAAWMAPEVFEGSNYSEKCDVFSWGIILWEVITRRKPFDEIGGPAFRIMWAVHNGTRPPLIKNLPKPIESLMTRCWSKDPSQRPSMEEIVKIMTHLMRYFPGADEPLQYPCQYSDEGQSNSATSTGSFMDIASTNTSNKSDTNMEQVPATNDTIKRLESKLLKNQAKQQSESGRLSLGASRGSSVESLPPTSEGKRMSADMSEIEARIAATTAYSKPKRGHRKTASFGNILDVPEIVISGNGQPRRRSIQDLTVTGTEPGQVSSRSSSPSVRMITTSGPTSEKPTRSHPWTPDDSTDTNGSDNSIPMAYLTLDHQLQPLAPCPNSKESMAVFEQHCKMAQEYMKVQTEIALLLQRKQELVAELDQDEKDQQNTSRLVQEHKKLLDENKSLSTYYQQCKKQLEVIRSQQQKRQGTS

MDA-MB-468 = assay: Cytotoxicity in human MDA-MB-468 cells assessed as reduction in cell viability incubated for 72 hrs by MTS assay; type: functional, cell-based; details: MDA-MB-468, 72 h
MRC5 = assay: Cytotoxicity in human MRC5 cells assessed as reduction in cell viability incubated for 72 hrs by MTS assay; type: cell-based; details: MRC5, 72 h
MCF7 = assay: Cytotoxicity in human MCF7 cells assessed as reduction in cell viability incubated for 72 hrs by MTS assay; type: functional, cell-based; details: MCF7, 72 h
A2058 = assay: Cytotoxicity in human A2058 cells assessed as reduction in cell viability incubated for 72 hrs by MTS assay; type: functional, cell-based; details: A2058, 72 h
[7] = molecular target: Serine/threonine-protein kinase pim-1 (Homo sapiens, UniProt P11309); assay: Inhibition of PIM1 (unknown origin) by [33P]-ATP filter binding kinase assay
[8] = molecular target: Serine/threonine-protein kinase SIK3 (Homo sapiens, UniProt Q9Y2K2); assay: Inhibition of SIK3 (unknown origin) by [33P]-ATP filter binding kinase assay
[9] = molecular target: T4, Mitogen-activated protein kinase 15 (Homo sapiens, UniProt Q8TD08); assay: Inhibition of ERK8 (unknown origin) by [33P]-ATP filter binding kinase assay
T4 sequence (Q8TD08 whole entry): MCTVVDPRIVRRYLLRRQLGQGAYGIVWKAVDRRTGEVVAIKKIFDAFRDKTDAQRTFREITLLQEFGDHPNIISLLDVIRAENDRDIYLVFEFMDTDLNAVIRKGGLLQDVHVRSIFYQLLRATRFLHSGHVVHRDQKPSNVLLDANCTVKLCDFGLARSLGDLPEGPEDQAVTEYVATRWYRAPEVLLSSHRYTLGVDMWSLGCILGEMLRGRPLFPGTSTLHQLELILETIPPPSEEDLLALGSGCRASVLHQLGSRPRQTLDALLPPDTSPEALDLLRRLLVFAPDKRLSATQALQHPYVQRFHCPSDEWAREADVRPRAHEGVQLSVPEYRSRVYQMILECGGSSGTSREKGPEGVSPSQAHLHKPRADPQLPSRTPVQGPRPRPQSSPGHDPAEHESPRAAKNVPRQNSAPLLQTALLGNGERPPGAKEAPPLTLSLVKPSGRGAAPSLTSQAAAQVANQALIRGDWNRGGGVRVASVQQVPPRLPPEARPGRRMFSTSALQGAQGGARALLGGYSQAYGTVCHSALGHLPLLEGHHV

HT-29 = assay: Cytotoxicity in human HT-29 cells assessed as reduction in cell viability incubated for 72 hrs by MTS assay; type: functional, cell-based; details: HT-29, 72 h
[10] = molecular target: Mitogen-activated protein kinase kinase kinase 11 (Homo sapiens, UniProt Q16584); assay: Inhibition of MLK3 (unknown origin) by [33P]-ATP filter binding kinase assay
[11] = molecular target: Mitogen-activated protein kinase kinase kinase 9 (Homo sapiens, UniProt P80192); assay: Inhibition of MLK1 (unknown origin) by [33P]-ATP filter binding kinase assay
MV4-11 = assay: Cytotoxicity in human MV4-11 cells assessed as reduction in cell viability incubated for 72 hrs by MTS assay; type: functional, cell-based; details: MV4-11, 72 h
[12] = molecular target: Cyclin-dependent kinase 9 (Homo sapiens, UniProt P50750); assay: Inhibition of CDK9 (unknown origin)

Chain of Serine/threonine-protein kinase SIK3 (Q9Y2K2 whole entry): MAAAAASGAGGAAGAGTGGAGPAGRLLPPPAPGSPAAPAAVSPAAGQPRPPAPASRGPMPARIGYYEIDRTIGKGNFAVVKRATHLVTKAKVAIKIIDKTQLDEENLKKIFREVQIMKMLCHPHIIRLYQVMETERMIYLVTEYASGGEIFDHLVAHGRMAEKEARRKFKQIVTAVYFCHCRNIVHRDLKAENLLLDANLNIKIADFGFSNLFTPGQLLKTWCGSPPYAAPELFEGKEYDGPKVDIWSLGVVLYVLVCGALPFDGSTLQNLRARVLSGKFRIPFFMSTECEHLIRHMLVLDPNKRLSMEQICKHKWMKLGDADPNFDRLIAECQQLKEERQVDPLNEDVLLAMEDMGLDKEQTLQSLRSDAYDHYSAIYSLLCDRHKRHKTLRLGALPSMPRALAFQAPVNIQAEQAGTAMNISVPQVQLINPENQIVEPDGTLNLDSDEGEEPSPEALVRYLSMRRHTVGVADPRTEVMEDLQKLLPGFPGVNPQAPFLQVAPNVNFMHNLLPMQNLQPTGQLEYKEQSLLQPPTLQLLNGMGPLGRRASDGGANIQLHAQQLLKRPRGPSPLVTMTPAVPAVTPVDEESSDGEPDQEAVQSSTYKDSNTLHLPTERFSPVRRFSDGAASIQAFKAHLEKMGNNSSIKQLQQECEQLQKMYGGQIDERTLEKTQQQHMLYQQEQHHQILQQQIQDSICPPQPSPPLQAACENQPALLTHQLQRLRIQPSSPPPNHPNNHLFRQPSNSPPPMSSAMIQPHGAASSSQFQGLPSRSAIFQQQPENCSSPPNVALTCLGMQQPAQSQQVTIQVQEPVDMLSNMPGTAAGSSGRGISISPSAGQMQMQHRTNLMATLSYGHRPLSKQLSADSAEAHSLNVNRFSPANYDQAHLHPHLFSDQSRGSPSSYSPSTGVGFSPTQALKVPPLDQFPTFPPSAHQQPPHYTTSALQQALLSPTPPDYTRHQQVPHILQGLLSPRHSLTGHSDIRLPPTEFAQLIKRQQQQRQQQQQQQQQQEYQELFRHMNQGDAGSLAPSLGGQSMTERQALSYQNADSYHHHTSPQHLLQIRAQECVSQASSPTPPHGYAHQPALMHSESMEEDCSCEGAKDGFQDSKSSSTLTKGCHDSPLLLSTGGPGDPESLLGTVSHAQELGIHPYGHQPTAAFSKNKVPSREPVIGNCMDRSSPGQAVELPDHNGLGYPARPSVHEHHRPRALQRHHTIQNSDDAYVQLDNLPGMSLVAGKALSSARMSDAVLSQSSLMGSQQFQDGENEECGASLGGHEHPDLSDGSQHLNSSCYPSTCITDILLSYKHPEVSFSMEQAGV
Chain of Aurora kinase B (Q96GD4 whole entry): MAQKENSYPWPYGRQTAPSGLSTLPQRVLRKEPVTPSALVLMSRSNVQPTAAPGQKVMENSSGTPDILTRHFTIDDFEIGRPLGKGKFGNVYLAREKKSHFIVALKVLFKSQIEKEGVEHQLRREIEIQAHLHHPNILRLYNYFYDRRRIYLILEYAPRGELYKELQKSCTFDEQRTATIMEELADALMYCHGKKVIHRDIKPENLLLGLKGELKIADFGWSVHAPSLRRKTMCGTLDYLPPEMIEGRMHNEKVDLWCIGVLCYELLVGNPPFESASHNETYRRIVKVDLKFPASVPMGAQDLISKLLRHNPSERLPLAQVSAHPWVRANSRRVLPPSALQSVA
Chain of Mitogen-activated protein kinase kinase kinase 11 (Q16584 whole entry): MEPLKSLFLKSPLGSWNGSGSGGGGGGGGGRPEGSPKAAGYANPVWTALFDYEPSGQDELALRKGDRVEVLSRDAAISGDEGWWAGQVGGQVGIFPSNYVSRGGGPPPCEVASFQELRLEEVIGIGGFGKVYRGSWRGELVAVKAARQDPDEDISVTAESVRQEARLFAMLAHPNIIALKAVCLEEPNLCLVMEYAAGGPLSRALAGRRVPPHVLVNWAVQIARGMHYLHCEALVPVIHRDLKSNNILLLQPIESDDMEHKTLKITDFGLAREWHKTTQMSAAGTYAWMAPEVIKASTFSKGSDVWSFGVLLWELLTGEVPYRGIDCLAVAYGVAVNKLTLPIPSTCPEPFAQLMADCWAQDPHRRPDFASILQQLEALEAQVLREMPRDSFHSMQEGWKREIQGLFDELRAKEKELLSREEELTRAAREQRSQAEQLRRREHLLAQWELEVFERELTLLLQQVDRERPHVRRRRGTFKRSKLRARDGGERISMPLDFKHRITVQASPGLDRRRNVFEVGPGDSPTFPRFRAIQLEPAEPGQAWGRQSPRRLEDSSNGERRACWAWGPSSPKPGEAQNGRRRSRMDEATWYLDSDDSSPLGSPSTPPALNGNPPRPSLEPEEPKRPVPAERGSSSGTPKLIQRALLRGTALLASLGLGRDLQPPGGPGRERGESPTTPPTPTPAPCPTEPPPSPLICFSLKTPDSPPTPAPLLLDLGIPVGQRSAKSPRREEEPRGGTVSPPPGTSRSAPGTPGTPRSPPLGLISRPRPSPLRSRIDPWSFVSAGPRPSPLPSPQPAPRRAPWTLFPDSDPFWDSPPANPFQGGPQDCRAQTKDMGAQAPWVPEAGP
Chain of Mitogen-activated protein kinase kinase kinase 9 (P80192 whole entry): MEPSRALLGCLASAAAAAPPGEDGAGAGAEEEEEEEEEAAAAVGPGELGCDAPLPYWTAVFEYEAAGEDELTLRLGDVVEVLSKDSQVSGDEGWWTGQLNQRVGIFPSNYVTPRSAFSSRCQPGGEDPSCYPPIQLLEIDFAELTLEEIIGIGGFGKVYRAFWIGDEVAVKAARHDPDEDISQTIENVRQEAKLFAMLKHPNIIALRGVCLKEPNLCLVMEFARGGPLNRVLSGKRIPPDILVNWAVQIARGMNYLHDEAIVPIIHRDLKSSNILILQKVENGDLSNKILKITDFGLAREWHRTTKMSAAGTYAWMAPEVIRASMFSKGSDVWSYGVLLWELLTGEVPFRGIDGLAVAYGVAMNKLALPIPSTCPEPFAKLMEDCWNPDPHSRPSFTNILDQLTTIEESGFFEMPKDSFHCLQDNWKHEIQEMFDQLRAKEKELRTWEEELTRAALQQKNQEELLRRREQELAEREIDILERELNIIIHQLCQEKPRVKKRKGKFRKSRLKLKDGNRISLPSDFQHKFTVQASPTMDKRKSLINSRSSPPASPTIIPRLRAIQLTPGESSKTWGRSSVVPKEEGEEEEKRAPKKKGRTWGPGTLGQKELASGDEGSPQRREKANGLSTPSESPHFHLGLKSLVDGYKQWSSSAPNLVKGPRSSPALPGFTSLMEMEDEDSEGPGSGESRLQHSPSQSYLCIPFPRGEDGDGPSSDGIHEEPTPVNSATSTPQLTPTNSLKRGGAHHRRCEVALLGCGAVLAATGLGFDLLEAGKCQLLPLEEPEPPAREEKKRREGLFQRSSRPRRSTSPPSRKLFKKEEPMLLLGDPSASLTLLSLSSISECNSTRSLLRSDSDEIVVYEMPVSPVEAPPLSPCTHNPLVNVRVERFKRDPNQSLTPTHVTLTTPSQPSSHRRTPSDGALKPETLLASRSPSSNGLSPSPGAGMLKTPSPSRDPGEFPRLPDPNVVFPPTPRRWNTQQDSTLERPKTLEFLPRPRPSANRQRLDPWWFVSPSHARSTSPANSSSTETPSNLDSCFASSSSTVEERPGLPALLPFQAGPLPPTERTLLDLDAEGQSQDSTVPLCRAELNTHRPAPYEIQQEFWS
Chain of Receptor-interacting serine/threonine-protein kinase 2 (O43353 whole entry): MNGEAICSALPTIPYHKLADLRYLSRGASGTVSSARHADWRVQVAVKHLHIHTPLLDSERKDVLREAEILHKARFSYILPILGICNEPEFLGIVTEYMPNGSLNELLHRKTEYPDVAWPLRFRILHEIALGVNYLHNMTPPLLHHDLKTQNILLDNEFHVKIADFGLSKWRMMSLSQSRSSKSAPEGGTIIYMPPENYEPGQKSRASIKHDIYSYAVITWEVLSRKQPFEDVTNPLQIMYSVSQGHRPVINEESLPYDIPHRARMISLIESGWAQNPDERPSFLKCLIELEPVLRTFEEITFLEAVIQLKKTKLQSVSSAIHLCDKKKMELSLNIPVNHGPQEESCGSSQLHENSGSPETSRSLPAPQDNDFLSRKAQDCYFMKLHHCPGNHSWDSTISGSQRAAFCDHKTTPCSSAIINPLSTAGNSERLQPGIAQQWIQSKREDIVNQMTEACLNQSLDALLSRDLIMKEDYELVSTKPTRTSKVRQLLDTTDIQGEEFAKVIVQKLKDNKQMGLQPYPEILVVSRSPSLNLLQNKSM
Chain of Serine/threonine-protein kinase pim-2 (Q9P1W9 whole entry): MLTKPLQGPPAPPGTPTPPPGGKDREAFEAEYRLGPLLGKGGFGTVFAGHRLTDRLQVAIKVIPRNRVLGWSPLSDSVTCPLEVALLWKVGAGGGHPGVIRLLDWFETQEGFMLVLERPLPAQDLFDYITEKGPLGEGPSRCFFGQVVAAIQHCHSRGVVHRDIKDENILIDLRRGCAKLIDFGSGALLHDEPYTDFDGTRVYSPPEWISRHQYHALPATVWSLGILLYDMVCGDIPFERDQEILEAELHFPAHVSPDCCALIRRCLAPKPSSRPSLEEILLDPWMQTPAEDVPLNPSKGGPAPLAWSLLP

SMILES: COc1cc(Br)cc2[nH]c(I)c(-c3cnc(-c4ccc[nH]4)o3)c12
- IC50 [1]: > 10 µM
- IC50 [2]: > 10 µM
- IC50 [3]: > 10 µM
- IC50 [4]: 40 µM
- IC50 (MOLT-4): > 10 µM
- IC50 (Aurora kinase A): > 10 µM
- IC50 (SK-BR-3): > 10 µM
- IC50 (Aurora kinase B): 31 µM
- IC50 [5]: > 10 µM
- IC50 [6]: 18 µM
- IC50 (MDA-MB-468): > 10 µM
- IC50 (MRC5): > 10 µM
- IC50 (MCF7): > 10 µM
- IC50 (A2058): > 10 µM
- IC50 [7]: 18 µM
- IC50 [8]: > 10 µM
- IC50 [9]: > 10 µM
- IC50 (HT-29): > 10 µM
- IC50 [10]: 19 µM
- IC50 [11]: 21 µM
- IC50 (MV4-11): > 10 µM

SMILES: Cc1cc(=O)c2c(O)cc(O)c([C@@H]3CCN(C)C[C@@H]3O)c2o1
- IC50 [12]: 0.3 µM

SMILES: COc1cc(Br)cc2[nH]cc(-c3cnc(-c4cc(Br)c[nH]4)o3)c12
- IC50 [1]: > 10 µM
- IC50 [2]: > 10 µM
- IC50 [3]: > 10 µM
- IC50 [4]: > 10 µM
- IC50 (MOLT-4): > 10 µM
- IC50 (Aurora kinase A): > 10 µM
- IC50 (SK-BR-3): > 10 µM
- IC50 (Aurora kinase B): 7.8 µM
- IC50 [5]: > 10 µM
- IC50 [6]: 36 µM
- IC50 (MDA-MB-468): > 10 µM
- IC50 (MRC5): > 10 µM
- IC50 (MCF7): > 10 µM
- IC50 (A2058): > 10 µM
- IC50 [7]: 43 µM
- IC50 [8]: > 10 µM
- IC50 [9]: > 10 µM
- IC50 (HT-29): > 10 µM
- IC50 [10]: 23 µM
- IC50 [11]: 22 µM
- IC50 (MV4-11): > 10 µM
